Where two headings read alike, the source gives them in different places. Ends that are not written are not given here.
Tests used:
[1] = Peptidase activity of desalted fecal protein extracts against 33-mer, 19-mer and 13-mer gliadin peptides (HPLC); type: in vitro ADME, human; details: for Degradation capacity of new-born fecal samples against peptide / Degradation of peptide by feces samples / Degradation of peptide by fecal protein extract / Degradation of peptide by meconium protein extract: 60 μM peptide, 37 °C; for Degradation capacity of new-born fecal samples against peptide: in some cases intermediate peptides observed; for Degradation of peptide by feces samples: up to 12 month-olds; for Degradation of peptide by fecal protein extract / Degradation of peptide by meconium protein extract: 0.8 mg/mL extract; for Degradation of peptide by fecal protein extract: HPLC UV 215 nm; for Degradation of peptide by meconium protein extract: reverse-phase HPLC, UV 215 nm
Description: Step 1: Sample preparation: Fecal samples were homogenized by mechanical stirring (90 min) in 10 mM Tris-HCl, pH 7.5 (1:5 w/v) and centrifuged (3100× g, 30 min). The supernatant was re-centrifuged at 30,000× g for 20 min.
Step 2: Ammonium sulphate fractionation: Each supernatant obtained from step 1 was precipitated with ammonium sulphate. The 80% ammonium sulphate precipitate (containing glutenase activity) was collected by centrifugation at 30,000× g, 20 min. The pellet was dissolved in 10 mM Tris-HCl (pH 7.5) and ammonium sulphate was eliminated by passing through a Sephadex G-25 (PD-10) column (GE Healthcare Live Sources, San Diego, CA USA) equilibrated with Tris-ClH (pH 5) in accordance with manufacturer’s indications.
Peptides used in this paper were: 33-mer ([…]), 19-mer (LGQQQPFPPQQPYPQPQPF), and 13-mer (LGQQQPFPPQQPY) synthetized by Bionova Científica, S.L. (Madrid, Spain) with purification grade around 96%.
We assayed 33-mer, 19-mer, and 13-mer hydrolysis as described previously, with modifications. Briefly, reaction mixtures containing 0.8 mg/mL of desalted protein extract (see step 2.2), 33-, 19-, or 13-mer peptide (60 μM) were incubated at 37 °C for 60 min and then stopped by boiling at 100 °C. 10-µL of each filtered aliquot was subjected to reverse-phase HPLC. The elution phases consisted of (A) MilliQ H2O containing 0.1% trifluoroacetic acid (TFA) (v/v) and (B) acetonitrile and 0.1% TFA (v/v). The eluate was monitored by measuring UV absorbance at 215 nm. Negative controls included runs with proteins denatured by boiling for 15 min, or 33-, 19-, and 13-mer peptides assayed without protein extract.

[2] = system: elastase 3B, elastase 2A, and carboxypeptidase A1; details: cited from earlier work
[3] = elastase 3B, elastase 2A, and carboxypeptidase A1 from human feces

LGQQQPFPPQQPY [13-mer]
Degradation capacity of new-born fecal samples against peptide ([1]; 60 min, HPLC): total degradation | Degradation of peptide by feces samples ([1]; 60 min, HPLC): able to degrade | Degradation of peptide by fecal protein extract ([1]; volunteers >300 months old (the only group that did not degrade it completely), 60 min): not able to complete degrade | Hydrolysis of peptide by gastrointestinal proteases [2, 3]: fully

LGQQQPFPPQQPYPQPQPF [19-mer]
Hydrolysis of peptide by gastrointestinal proteases [2]: fully

LQLQPFPQPQLPYPQPQLPYPQPQLPYPQPQPF [33-mer]
Hydrolytic activity of meconium samples against peptide ([1]; all 21 meconium samples, HPLC): showed hydrolytic activity | Degradation of peptide by meconium protein extract ([1]; desalted meconium protein extract of newborn volunteer 15, 60 min, intermediate peptides generated): only partially degraded | Degradation of peptide by meconium protein extract ([1]; desalted meconium protein extracts of newborn volunteers 3 and 9, 60 min): completely degrade | Degradation capacity of new-born fecal samples against peptide ([1]; 60 min, HPLC): total degradation | Degradation of peptide by feces samples ([1]; 60 min, HPLC): able to degrade | Degradation of peptide by fecal protein extract ([1]; volunteers 0–2 months old, 60 min): completely degrade | Degradation of peptide by fecal protein extract ([1]; volunteers 2–6 months old, 60 min): completely degrade | Degradation of peptide by fecal protein extract ([1]; volunteers over 48 months old, 1 h): unable to completely degrade | Hydrolysis of peptide by gastrointestinal proteases [2, 3]: partially
